# Data taken from patent publication US8883763B2 (Universite Joseph Fourier, priority 2010, dated 2014).
# How the values were obtained:
# [1] = In vivo toxicity in nude mice (weight, maximum tolerated oral dose); details: 200 mg/kg per os twice weekly over 2 months, 63 days
# Description: FIG. 14 presents the change in the weight of nude mice over 63 days. The mice received an administration of compound 6 (200 mg/kg) per os twice weekly over 2 months.
# Compound 6 was dissolved at 8 mg/ml in a 60 mg/ml aqueous solution of beta-cyclodextrin (vehicle).
# For the in vivo experiments, molecule 6 (8 mg/ml) was prepared in 60 mg/ml of β-cyclodextrin (Sigma #4805) dissolved in water and vortexed.
# All the animal experiments were carried out according to the recommendations of the local ethics commmittee. Nude mice (NCr-nu/nu females (Harlan Laboratories), were housed in a room with filtered air at 22° C., alternating 12 hours of day and 12 hours of night.
# The mice received compound 6 per os in doses and at intervals described in the captions to the figures. The control mice received the vehicle alone (identical volume of beta-cyclodextrin at 60 mg/ml))
# HeLa cells = assay: Phase contrast video microscopy of HeLa cells (mitosis duration, blebbing); type: cell-based, human; details: 0.5 μM
# Description: The cells were filmed over 48 hours (image acquisition every 5 minutes) with a Neofluar 40× objective (Zeiss).
# The values of FIG. 10A are averages±SEM of two experiments in which 50 mitotic cells were monitored.
# For z-series video microscopy, HeLa cells were cultured in glass-bottomed dishes (Iwaki, Milian # BY-3910035). The system comprises: an AXIOVERT 200M inverted microscope (Zeiss®), a thermostated incubation chamber which maintains a temperature of 37° C. and a constant CO2 level of 5%, a motorized platform and a CoolSNAP HQ camera (Roper Scientifics®) coupled with the Metamorph acquisition and analysis system (Universal Imaging™ Corporation). The studies were carried out with ×20 or ×40 objectives (Neofluar Zeiss).
# Initially, the acquisition fields were chosen and stored in the memory, then the acquisition parameters were defined, such as the duration of the experiment (48 hours), the interval between the image captures (5 minutes), or the number of sections at depth z (9 sections). At the end of 48 hours of recording, the acquisition batteries were reconstituted with the image at z having the same focus, using the Metamorph software.
# [2] = tested on: primary human fibroblasts; assay: Indirect immunofluorescence on primary human fibroblasts; type: cell-based; details: 5 and 10 μM for 24 hours
# Description: Primary human fibroblasts (PHFs) were prepared from newborn foreskins as described in (Nahm W K et al., J Dermatol Sci. 2002, 28(2): pp 152-8).
# The cells were cultured on slides in 24-well plates and incubated for 24 hours with molecule 6 at different concentrations from 1 to 10 μM.
# Corresponding quantities of DMSO were added to the culture medium in the control wells.
# The cells were fixed in a solution of PBS with 4% paraformaldehyde (PFA) and 0.1% glutaraldehyde (GA), for 15 minutes and centrifuged at 300 g for the last 10 minutes of the fixing. The slides were rinsed in PBS and the free aldehyde groups were reduced by two successive 5-minute incubations in PBS containing 1 mg/ml of NaBH4.
# After one washing with PBS then another with PBST (PBS with 0.5% triton-X-100), the cells are incubated for 30 minutes at ambient temperature with anti α-tubulin monoclonal antibody solution (DM1A clone, Sigma # T6199) diluted to 1:200 in PBST. […] After 3 10-minute washings in PBST, the slides are mounted on plates in Fluorsave™ mounting medium (Calbiochem #345789) and are observed and analyzed using an Axiovert 200M inverted fluorescence microscope (Zeiss®). […]
# HMEC cells = assay: Proliferation of HMEC cells (GI50); type: cell-based; details: Homo sapiens, 120 h, 50 μM to 1 nM for 5 days
# How it was run: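 Cells seeded at 1,000/well (10% confluence) and exposed 5 days (120 h) to compound from 1 nM up to 50–100 μM. Live cells counted by Hoechst 33342 staining under fluorescence microscopy; GI50 is concentration halving proliferation versus control, mean of two triplicate experiments.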
# bovine brain tubulin = assay: In vitro tubulin polymerization test (turbidimetry at 350 nm); type: biochemical; details: molecules at 50 μM, calculated at t=3000 s, DMSO control = 100%
# How it was run: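 Bovine brain tubulin was assembled at 37 °C in BRB80 (80 mM K-PIPES pH 6.8, 1 mM MgCl2, 1 mM EGTA) with 1 mM GTP. The 50 μM tests used compounds at 50 μM, run in triplicate. Turbidity at 350 nm was read at t=3000 s and expressed relative to control taken as 100%.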
structure (smiles),measurement,setting,value
"COc1ccc(-c2[nH]c(=O)c3cc(OC)ccc3c2[N+](=O)[O-])cc1 [Compound 6, 7-methoxy-3-(4-methoxyphenyl)-4-nitroisoquinoline-1(2H)-one]",effect on the weight of nude mice,[1],no significant effect
same,"membrane phenotype of HeLa cells (interphase and mitosis), phase contrast",HeLa cells; 3 hours,cortical blebbings
same,"mitotic arrest of HeLa cells, phase contrast over 24 hours",HeLa cells; 24 hours,accumulation of rounded HeLa cells
same,mitotic cells remaining rounded,HeLa cells; HeLa cells in mitosis,20%
same,mitotic cells showing intense blebbing,HeLa cells; HeLa cells in mitosis,80%
same,duration of the mitosis of HeLa cells,HeLa cells; 1 hour under control conditions,22 h
same,"phenotype on microtubules and actin cytoskeleton, primary human fibroblasts in interphase",[2],depolymerization of the microtubules and a reorganization of the actin cytoskeleton
same,"phenotype on microtubules and actin cytoskeleton, primary human fibroblasts in mitosis",[2],depolymerization of the spindle microtubules and the formation of ectopic furrows
same,GI50,HMEC cells,≤ 100 nM
same,Tubulin polymerization inhibition,bovine brain tubulin,+ ((+) signifies that the molecule induces tubulin assembly inhibition in vitro comprised between 6 and 25% of the DMSO control.)
